{"source": "patent US20060134131A1", "about": "“Cosmetic or pharmaceutical composition comprising a genus halopteris brown alga extract” (priority 2002, published 2006)", "system": "pre-adipocytes 3T3-L1", "experiment": "Differentiation of 3T3-L1 pre-adipocytes into adipocytes, lipid content by Oil Red colouring", "type": "cell-based", "settings": "Mus musculus, 3T3-L1, retinoic acid 10 μM", "procedure": "The study on the effect of this extract on a line of pre-adipocytes ET3-L1 induced as adipocytes is carried out according to a protocol which is known and which is in particular described in the document which appeared in Annu. Rev. Biochem., 1995, 64: 345-373, entitled “Transcriptional regulation of gene expression during adipocyte differentiation”, the authors of which were MacDougald O A and Lane M D.\nThis protocol is set out briefly below. The pre-adipocyte cells of the line e=3T3-L1 were kept in culture in a Dulbelcco modified Eagle medium (DMEM) containing 2 mM of glutamine, 4.5 g/l of glucose, 0.11 g/l of sodium pyruvate, 10% of calf serum (SVD) and antibiotics (50 U penicillin and 50 μg of streptomycin per ml of medium). Their differentiation as adipocytes was brought about in the following manner: firstly, the pre-adipocyte cells were cultivated with confluence for two days. At the time which will be referred to below as D0, the culture medium was replaced by a differentiation inducing medium (DIM) composed of DMEM containing 10% foetal calf serum (FCS) with the addition of 0.25 mM of isobutyl methyl xanthine (IBMX), 0.25 μM of dexamethasone and 1.74 μM of insulin. After two days of incubation, and therefore at time D2, the induction medium was delicately withdrawn and replaced by a new culture medium containing 10% of FCS and 0.174 μM of insulin. Next the culture medium was renewed every two days.\nAfter seven days of culture, the lipid content of the pre-adipocyte cells was assessed by colouring with Oil Red. More precisely, the pre-adipocyte cells were fixed to 3.7% formaldehyde and then incubated for ten minutes with a Oil Red colorant solution (0.5% in an isopropanol/water mixture). After 10 minutes, the cellular carpet was rinsed with water and the pre-adipocyte cells were lysed with pure isopropanol. The optical density (OD) of the medium was measured at 540 nm.\nThe extract of the brown alga Halopteris scoparia was tested on 3T3-L1 cells during the induction phase by means of the DIM, which therefore commenced at day D0.\nIn the first experimental series, this extract was added from the very start of the differentiation (at time D0) and kept present in the medium until the cells were fixed (at time D7), by renewal every two days (that is to say at time D2 and D4). The extract was tested at the following three concentrations: 0.4%, 1% and 2.5%. In the same way, use was made of a sample of 10 μM retinoic acid, which is known for inhibiting the differentiation of pre-adipocytes into adipocytes, as is in particular described in the article which appeared in Differentiation, 1990, 45:119-127, entitled “The molecular basis for inhibition of adipose conversion of 3T3-L1 cells by retinoic acid”, the authors of which were Stone R L and Berlnohr D A. […]", "note": "Where two headings read alike, the source gives them in different places.", "data": [{"compound": "CC1=C(/C=C/C(C)=C/C=C/C(C)=C/C(=O)O)C(C)(C)CCC1", "note": "[Retinoic Acid, retinoic acid]", "values": [{"measurement": "inhibition at 10 µM", "setting": "first experimental series, five manipulations, read-out: % inhibition of the differentiation", "value": "82 ± 21", "unit": "%"}, {"measurement": "inhibition at 10 µM", "setting": "presence from D0 to D2, read-out: % inhibition of differentiation", "value": "40 ± 5", "unit": "%"}, {"measurement": "inhibition at 10 µM", "setting": "presence from D0 to D7, second series, read-out: % inhibition of differentiation", "value": "51 ± 3", "unit": "%"}, {"measurement": "inhibition at 10 µM", "setting": "presence from D2 to D7, read-out: % inhibition of differentiation", "value": "3 ± 2", "unit": "%"}]}]}
